The record followed here is ChEMBL document CHEMBL1909046, “DrugMatrix in vitro pharmacology data”.

Experiment [1] addresses T1, C-C chemokine receptor type 4 (Homo sapiens, UniProt P51679).
T1 sequence (P51679 whole entry): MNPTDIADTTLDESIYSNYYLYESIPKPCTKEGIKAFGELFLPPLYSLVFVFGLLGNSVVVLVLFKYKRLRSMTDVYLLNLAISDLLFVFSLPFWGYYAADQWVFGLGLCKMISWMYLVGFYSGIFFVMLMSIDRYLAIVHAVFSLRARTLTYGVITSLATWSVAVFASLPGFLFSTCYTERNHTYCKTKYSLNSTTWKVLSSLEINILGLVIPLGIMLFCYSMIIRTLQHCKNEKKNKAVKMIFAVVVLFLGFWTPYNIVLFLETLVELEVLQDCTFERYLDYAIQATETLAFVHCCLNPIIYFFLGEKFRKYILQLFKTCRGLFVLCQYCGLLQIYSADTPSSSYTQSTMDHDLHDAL
The class given is cell membranes, Membrane. The conditions noted are these: chem-1.

The target in experiment [2] is T2, Alpha-1B adrenergic receptor (Rattus norvegicus, UniProt P15823).
T2 sequence (P15823 whole entry): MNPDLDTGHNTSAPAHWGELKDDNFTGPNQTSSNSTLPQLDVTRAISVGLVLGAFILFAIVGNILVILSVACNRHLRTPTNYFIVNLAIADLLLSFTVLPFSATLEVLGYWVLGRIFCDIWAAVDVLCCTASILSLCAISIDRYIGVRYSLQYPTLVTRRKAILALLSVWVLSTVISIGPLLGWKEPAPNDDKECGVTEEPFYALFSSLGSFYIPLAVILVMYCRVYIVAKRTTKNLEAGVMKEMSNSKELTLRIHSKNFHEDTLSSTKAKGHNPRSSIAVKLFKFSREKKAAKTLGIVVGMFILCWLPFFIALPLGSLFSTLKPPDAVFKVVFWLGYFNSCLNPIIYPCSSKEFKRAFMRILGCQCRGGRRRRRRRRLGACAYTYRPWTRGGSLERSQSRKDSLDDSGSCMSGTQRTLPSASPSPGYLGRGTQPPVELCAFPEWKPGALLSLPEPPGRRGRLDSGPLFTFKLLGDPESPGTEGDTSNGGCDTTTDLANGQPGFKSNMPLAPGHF
In words: DRUGMATRIX: Alpha-1B adrenergic receptor radioligand binding (ligand: prazosin). It is filed as cell membranes, Wistar, Liver, Membrane. As to conditions: Not Active = under 50% inhibition at 10 µM.

In experiment [3] the target is T3, Nitric oxide synthase, inducible (Mus musculus, UniProt P29477).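 Also: inhibition of iNOS enzyme activity measured with L-arginine as substrate; in other assays of this panel Not Active means under 50% inhibition at 10 µM.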
T3 sequence (P29477 whole entry): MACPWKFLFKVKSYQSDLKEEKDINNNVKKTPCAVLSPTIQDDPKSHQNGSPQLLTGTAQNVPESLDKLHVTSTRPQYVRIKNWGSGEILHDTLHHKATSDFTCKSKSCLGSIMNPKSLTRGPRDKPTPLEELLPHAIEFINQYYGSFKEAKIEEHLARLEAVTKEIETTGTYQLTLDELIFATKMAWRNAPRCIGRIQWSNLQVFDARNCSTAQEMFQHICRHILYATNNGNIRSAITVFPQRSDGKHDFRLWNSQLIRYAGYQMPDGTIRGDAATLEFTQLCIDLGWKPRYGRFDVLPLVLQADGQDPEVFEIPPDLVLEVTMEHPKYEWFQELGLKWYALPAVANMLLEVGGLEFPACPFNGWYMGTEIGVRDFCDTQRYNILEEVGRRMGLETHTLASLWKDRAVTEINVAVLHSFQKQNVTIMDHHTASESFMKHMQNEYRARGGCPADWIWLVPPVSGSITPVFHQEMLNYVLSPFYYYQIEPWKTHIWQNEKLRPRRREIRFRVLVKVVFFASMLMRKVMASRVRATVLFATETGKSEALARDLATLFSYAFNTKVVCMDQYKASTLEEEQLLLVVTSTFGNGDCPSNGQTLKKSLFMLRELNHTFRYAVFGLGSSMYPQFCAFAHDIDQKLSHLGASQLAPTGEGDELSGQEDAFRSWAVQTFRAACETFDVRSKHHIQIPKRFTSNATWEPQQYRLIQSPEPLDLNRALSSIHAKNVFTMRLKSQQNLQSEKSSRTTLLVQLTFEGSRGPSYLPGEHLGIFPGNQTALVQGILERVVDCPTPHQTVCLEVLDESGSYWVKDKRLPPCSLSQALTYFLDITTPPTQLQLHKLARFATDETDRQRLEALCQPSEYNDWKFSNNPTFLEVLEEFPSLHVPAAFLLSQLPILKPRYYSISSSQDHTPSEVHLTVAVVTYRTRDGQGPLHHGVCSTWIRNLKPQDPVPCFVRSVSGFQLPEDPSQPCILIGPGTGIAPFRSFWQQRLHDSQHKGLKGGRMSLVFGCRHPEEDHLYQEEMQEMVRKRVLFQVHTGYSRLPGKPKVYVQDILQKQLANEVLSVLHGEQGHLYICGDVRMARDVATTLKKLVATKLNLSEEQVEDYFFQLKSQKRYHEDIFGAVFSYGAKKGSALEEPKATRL
Also on record: species or system Escherichia coli.

Experiment [4] concerns the target Epidermal growth factor receptor (Homo sapiens, UniProt P00533). Briefly: DRUGMATRIX: Protein Tyrosine Kinase, EGF Receptor enzyme inhibition (substrate: Poly(Glu:Tyr)). It is filed as cell-based, Insect cells. The conditions noted are these: Not Active = under 50% inhibition at 10 µM.
The nature of experiment [5]: DRUGMATRIX: Serotonin (5-Hydroxytryptamine) 5-HT3 radioligand binding (ligand: [3H] GR-65630). The class given is cell membranes, Membrane. As to conditions: hek293; Not Active = under 50% inhibition at 10 µM.
In another experiment the target is T4, Endothelin-1 receptor (Homo sapiens, UniProt P25101). Also: in other assays of this panel Not Active means under 50% inhibition at 10 µM.
T4 sequence (P25101 whole entry): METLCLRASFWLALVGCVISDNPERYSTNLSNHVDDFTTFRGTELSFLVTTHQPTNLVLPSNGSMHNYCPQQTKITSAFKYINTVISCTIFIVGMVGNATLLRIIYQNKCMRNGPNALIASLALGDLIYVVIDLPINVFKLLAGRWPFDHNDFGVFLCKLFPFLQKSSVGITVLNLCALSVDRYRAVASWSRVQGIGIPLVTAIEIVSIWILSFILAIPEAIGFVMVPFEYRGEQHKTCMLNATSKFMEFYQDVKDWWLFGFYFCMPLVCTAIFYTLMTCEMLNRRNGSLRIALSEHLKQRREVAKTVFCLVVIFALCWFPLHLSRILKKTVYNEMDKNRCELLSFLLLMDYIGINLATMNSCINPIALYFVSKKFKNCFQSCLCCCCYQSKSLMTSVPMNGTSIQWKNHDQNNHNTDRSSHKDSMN
The class given is cell membranes, Membrane. As to conditions: cho-k1.

A short description of experiment [6]: DRUGMATRIX: Calcium Channel Type L, Dihydropyridine radioligand binding (ligand: [3H] Nitrendipine). It is filed as cell membranes, Rattus norvegicus, Wistar, Cerebral cortex, Membrane. As to conditions: Not Active = under 50% inhibition at 10 µM.
The nature of experiment [7]: DRUGMATRIX: Phosphodiesterase PDE4 enzyme inhibition (substrate: [3H]cAMP + cAMP). The conditions noted are these: u-937; Not Active = under 50% inhibition at 10 µM.
Experiment [8] is described as follows: DRUGMATRIX: Nicotinic Acetylcholine radioligand binding (ligand: [125I] Epibatidine). It is filed as cell membranes, Membrane. The conditions noted are these: imr-32; Not Active = under 50% inhibition at 10 µM.

Sequence of Epidermal growth factor receptor (P00533 whole entry): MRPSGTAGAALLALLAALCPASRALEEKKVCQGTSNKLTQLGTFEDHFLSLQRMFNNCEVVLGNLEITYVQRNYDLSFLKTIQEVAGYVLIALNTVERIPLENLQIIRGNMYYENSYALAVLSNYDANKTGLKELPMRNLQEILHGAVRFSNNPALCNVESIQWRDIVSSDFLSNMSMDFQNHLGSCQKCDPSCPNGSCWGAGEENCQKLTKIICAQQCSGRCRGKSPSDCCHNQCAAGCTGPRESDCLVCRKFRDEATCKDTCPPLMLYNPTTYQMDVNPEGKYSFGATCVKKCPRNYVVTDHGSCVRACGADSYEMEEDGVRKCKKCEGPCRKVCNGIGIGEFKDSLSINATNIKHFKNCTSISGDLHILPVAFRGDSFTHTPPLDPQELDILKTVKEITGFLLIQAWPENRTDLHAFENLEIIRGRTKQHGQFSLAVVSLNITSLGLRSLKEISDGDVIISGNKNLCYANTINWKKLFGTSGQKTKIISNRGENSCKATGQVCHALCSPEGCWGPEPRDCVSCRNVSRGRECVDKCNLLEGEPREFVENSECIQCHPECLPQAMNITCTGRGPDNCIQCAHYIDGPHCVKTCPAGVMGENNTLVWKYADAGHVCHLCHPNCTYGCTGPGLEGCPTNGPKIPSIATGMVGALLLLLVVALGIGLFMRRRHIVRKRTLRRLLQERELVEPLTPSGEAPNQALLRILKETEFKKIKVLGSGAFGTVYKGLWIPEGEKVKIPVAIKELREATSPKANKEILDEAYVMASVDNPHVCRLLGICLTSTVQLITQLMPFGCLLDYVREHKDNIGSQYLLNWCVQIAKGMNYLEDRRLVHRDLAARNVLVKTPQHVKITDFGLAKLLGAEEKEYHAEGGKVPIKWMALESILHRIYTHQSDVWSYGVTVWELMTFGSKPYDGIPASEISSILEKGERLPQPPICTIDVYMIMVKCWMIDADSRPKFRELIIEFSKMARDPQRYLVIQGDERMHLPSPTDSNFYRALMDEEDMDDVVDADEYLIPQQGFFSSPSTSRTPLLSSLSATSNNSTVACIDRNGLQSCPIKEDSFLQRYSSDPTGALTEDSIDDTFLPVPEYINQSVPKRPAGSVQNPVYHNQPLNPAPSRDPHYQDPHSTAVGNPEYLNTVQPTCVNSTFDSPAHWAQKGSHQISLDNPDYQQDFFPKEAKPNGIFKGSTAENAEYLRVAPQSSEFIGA

Regarding `CCOC(=O)[C@H](CCc1ccccc1)N[C@@H](C)C(=O)N1[C@H](C(=O)O)C[C@@H]2CCC[C@@H]21`, the concentration for half-maximal inhibition (IC50) entry (in [1]; in experiment [2]; in experiment [3]; in experiment [4] (insect cells); in experiment [5]; against Endothelin-1 receptor) was “Not Active” in each case. The IC50 entry in experiment [6], in experiment [7] and in [8] was “Not Active” in each case. Further, the Ki entry in experiment [5], in [6], in experiment [7] and in experiment [8] was “Not Active” in each case.

For `CC(C)(C)NC(=O)[C@@H]1CN(Cc2cccnc2)CCN1C[C@@H](O)C[C@@H](Cc1ccccc1)C(=O)N[C@H]1c2ccccc2C[C@H]1O.O`, the IC50 result (in experiment [1]; in experiment [2]; in experiment [3]; in experiment [4] (insect cells); in experiment [5]; on Endothelin-1 receptor) was “Not Active” each time. Besides, the IC50 result in experiment [6], in [7] and in experiment [8] was “Not Active” throughout. The Ki result in experiment [5], in [6], in [7] and in experiment [8] was “Not Active” throughout.

For `CC1(C)[C@H]2CC[C@]1(C)C(=O)C2` [(-)-CAMPHOR], the half-maximal inhibitory concentration (IC50) result (in [1]; in experiment [2]; in [3]; in experiment [4] (insect cells); in experiment [5]; against Endothelin-1 receptor) was “Not Active” throughout. Besides, the half-inhibitory concentration (IC50) result in [6], in experiment [7] and in experiment [8] was “Not Active” in each case. The Ki entry in experiment [5], in experiment [6], in [7] and in experiment [8] was “Not Active” each time.

Consider `CC(C)(C)NCC(O)c1ccc(O)c(CO)c1` (configuration not stated) [ALBUTEROL], for which the IC50 result (in experiment [1]; in [2]; in [3]; in [4] (insect cells); in experiment [5]; at Endothelin-1 receptor) was “Not Active” each time. The IC50 entry in experiment [6], in experiment [7] and in experiment [8] was “Not Active” each time. Also, the Ki entry in experiment [5], in [6], in experiment [7] and in experiment [8] was “Not Active” throughout.

Take `COc1ccc(CCN2CCC(Nc3nc4ccccc4n3Cc3ccc(F)cc3)CC2)cc1` [ASTEMIZOLE]: the concentration for half-maximal inhibition (IC50) entry in experiment [1] is “Not Active”; in experiment [3] it was “Not Active”; in experiment [4] (read-out: IC50), 6.06 µM; on Endothelin-1 receptor, “Not Active”.

As for `CN(C)CCCN1c2ccccc2CCc2ccc(Cl)cc21` [CLOMIPRAMINE], the half-maximal inhibitory concentration (IC50) result (in [1]; in [3]; in experiment [4] (insect cells); at Endothelin-1 receptor) was “Not Active” each time.

`Clc1ccccc1C(c1ccccc1)(c1ccccc1)n1ccnc1` [CLOTRIMAZOLE]: the concentration for half-maximal inhibition (IC50) result was “Not Active” in experiment [1], “Not Active” in experiment [3], 69.4 µM in experiment [4] (read-out: IC50) and “Not Active” at Endothelin-1 receptor.

As for `O=C(CCCN1CCC(O)(c2ccc(Cl)cc2)CC1)c1ccc(F)cc1` [HALOPERIDOL], the IC50 entry (in [1]; in [3]; in experiment [4] (insect cells); on Endothelin-1 receptor) was “Not Active” throughout.

Consider `Oc1c(I)cc(I)c2cccnc12` [IODOQUINOL], for which the 50% inhibitory concentration (IC50) result is “Not Active” in experiment [1]; “Not Active” in [2]; “Not Active” in experiment [3]; 1.89 µM in experiment [4] (read-out: IC50); “Not Active” in experiment [5]; “Not Active” against Endothelin-1 receptor. Also, the half-inhibitory concentration (IC50) result in [6], in experiment [7] and in [8] was “Not Active” in each case. The Ki result in experiment [5], in experiment [6], in experiment [7] and in [8] was “Not Active” throughout.

In the case of `CN1CCN2c3ccccc3Cc3ccccc3C2C1` (configuration not stated) [MIANSERIN], the IC50 result (in [1]; in [3]; in experiment [4] (insect cells); at Endothelin-1 receptor) was “Not Active” throughout.

Regarding `CC(C)(O)c1ccccc1CC[C@@H](SCC1(CC(=O)O)CC1)c1cccc(/C=C/c2ccc3ccc(Cl)cc3n2)c1` [MONTELUKAST], the IC50 entry is “Not Active” in experiment [1], “Not Active” in [3], 3.2 µM in experiment [4] (read-out: IC50) and “Not Active” against Endothelin-1 receptor.

Consider `CSc1ccc2c(c1)N(CCC1CCCCN1C)c1ccccc1S2` (configuration not stated) [THIORIDAZINE], for which the IC50 entry in [1] is “Not Active”; in experiment [3], “Not Active”; in experiment [4] (read-out: IC50), 2.95 µM; against Endothelin-1 receptor it was “Not Active”.

Take `COc1cccc(C2(O)CCCCC2CN(C)C)c1` (configuration not stated) [TRAMADOL]: the half-maximal inhibitory concentration (IC50) result (in [1]; in experiment [3]; in experiment [4] (insect cells); at Endothelin-1 receptor) was “Not Active” throughout.

What is called IC50 is the point on the concentration scale where inhibition reaches its midpoint.
